Laboratory results from article PMC9860728, “Identification of New N-methyl-piperazine Chalcones as Dual MAO-B/AChE Inhibitors” (Pharmaceuticals, 2023).

Key:
MAO-A = target: T1, MAO-A (Homo sapiens, UniProt P21397); assay: MAO-A enzyme inhibition assay (kynuramine substrate); type: biochemical; conditions: mean ± SD; for remaining activity at 10 µM: read-out: Residual Activities at 10 μM (%) MAO-A
T1 construct: purchased Sigma Aldrich
T1 sequence (P21397 1-527): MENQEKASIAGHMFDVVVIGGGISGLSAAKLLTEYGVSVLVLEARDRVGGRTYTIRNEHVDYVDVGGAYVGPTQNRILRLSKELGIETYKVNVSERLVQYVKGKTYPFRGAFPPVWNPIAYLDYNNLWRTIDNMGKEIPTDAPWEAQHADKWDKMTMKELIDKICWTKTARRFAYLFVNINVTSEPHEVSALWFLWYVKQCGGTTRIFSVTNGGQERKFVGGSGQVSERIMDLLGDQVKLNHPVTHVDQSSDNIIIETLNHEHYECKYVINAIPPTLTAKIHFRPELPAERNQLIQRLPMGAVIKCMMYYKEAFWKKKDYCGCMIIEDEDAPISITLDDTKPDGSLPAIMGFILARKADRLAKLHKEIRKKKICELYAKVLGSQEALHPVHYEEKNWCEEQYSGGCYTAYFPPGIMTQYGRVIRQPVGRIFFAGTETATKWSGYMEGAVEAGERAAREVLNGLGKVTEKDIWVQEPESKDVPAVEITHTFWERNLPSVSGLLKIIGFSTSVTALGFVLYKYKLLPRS
Procedure: (§1) MAO assays were performed as described previously, i.e., ~0.09 U/mL of MAO-A and MAO-B were reacted with 0.06 mM kynuramine and 0.3 mM benzylamine, respectively, in 50 mM sodium phosphate (pH 7.2). […] For inhibition assay, the compounds were dissolved in DMSO and added into the reaction mixture. The final concentration of DMSO in the reaction mixture was less than 1% to avoid solvent disturbance.

BChE = BChE (Equus caballus, UniProt P81908); assay: biochemical; conditions: read-out: Residual Activities at 10 μM (%) BChE
BChE, sequence (P81908 whole entry): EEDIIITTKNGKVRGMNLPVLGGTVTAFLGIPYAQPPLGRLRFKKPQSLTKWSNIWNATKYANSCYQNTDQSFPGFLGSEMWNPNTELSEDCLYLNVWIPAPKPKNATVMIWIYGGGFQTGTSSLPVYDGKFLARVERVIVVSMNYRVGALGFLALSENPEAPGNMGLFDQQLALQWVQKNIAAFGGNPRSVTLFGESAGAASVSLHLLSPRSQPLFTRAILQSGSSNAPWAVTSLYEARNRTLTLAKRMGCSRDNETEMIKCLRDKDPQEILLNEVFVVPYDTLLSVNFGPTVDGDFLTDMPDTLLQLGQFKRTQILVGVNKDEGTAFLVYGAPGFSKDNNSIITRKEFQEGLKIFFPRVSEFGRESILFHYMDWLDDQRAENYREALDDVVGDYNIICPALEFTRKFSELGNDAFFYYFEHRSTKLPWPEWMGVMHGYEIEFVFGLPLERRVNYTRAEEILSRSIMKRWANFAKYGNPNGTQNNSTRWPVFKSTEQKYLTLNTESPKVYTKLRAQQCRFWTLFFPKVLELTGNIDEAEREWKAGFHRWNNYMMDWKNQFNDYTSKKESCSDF
Procedure: (§2) For measuring cholinesterase (ChE) activity, the Ellman method was employed with a slight modification. The AChE and BchE with ~0.02 U/mL were reacted with 0.5 mM ATCI and BTCI, respectively, followed by addition of 0.5 mM DTNB. […] In the inhibition assay, the enzyme and the compound were preincubated in reaction buffer for 15 min, followed by adding substrates and DTNB.

AChE = AChE (Electrophorus electricus, UniProt O42275); assay: AChE inhibition assay (Ellman method, ATCI); type: biochemical; conditions: for remaining activity at 10 µM / Residual Activities at 10 μM (%) AChE: 10 μM compound, mean ± SD; for remaining activity at 10 µM: read-out: Residual Activities at 10 μM (%) AChE; for SI (ChE): AChE selectivity over BChE, based on IC50 values
AChE, sequence (O42275 24-633): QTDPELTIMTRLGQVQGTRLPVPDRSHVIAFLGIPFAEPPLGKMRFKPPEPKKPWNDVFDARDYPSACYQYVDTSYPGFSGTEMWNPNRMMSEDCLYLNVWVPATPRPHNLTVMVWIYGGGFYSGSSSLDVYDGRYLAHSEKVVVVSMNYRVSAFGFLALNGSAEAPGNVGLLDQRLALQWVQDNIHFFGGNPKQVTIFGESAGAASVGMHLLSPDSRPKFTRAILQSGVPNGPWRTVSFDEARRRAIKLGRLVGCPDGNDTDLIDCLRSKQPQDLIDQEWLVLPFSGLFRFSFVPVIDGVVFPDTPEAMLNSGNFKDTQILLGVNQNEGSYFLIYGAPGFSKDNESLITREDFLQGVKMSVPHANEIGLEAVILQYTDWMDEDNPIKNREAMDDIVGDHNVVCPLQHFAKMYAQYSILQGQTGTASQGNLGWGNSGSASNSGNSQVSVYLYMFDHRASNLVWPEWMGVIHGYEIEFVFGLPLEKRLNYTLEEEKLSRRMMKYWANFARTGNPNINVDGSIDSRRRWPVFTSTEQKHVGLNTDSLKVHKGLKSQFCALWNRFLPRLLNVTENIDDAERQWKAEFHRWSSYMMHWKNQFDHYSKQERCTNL
Procedure: as §2

MAO-B = target: T2, MAO-B (Homo sapiens, UniProt P27338); assay: MAO-B enzyme inhibition assay (benzylamine substrate); type: biochemical; conditions: for remaining activity at 10 µM: read-out: Residual Activities at 10 μM (%) MAO-B; for SI (MAO): MAO-B selectivity over MAO-A, based on IC50 values
T2 construct: purchased Sigma Aldrich
T2 sequence (P27338 1-520): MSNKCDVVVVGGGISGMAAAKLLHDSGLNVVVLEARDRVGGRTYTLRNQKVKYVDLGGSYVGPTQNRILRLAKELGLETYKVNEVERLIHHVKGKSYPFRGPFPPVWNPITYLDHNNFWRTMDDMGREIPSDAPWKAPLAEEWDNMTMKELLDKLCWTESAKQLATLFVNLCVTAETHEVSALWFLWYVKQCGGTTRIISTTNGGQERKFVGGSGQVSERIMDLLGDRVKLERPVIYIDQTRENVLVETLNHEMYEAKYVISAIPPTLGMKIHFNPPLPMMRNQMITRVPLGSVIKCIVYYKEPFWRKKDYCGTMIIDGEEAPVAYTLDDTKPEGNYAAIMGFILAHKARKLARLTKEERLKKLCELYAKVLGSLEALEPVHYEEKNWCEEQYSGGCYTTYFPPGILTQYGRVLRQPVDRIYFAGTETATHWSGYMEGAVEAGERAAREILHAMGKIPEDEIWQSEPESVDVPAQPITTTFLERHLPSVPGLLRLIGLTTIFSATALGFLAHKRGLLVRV
Procedure: as §1

Row | Compound | remaining activity at 10 µM (MAO-A; 10 μM compound) | IC50 (MAO-A) | remaining activity at 10 µM (BChE) | remaining activity at 10 µM (AChE) | SI (ChE) (AChE) | remaining activity at 10 µM (MAO-B; 10 μM compound, mean ± SD) | SI (MAO) (MAO-B) | IC50 (MAO-B; mean ± SD) | Residual Activities at 10 μM (%) MAO-A (MAO-A; 10 μM compound) | Residual Activities at 10 μM (%) AChE (AChE) | Residual Activities at 10 μM (%) MAO-B (MAO-B; 10 μM compound, mean ± SD)
1 | CN1CCN(c2ccc(C(=O)/C=C/c3cccc(C(F)(F)F)c3)cc2)CC1 [Compound 2a, (E)-1-(4-(4-methylpiperazin-1-yl)phenyl)-3-(3-(trifluoromethyl)phenyl)prop-2-en-1-one] | 118 ± 7.73% | > 40 µM | 58.6 ± 6.8% | 34.9 ± 5.19% | 2.44 | 12.8 ± 0.79% | 15.50 | 2.58 ± 0.19 µM | – | – | –
2 | CN1CCN(c2ccc(C(=O)/C=C/c3ccc(C(F)(F)F)cc3)cc2)CC1 [Compound 2b, (E)-1-(4-(4-methylpiperazin-1-yl)phenyl)-3-(4-(trifluoromethyl)phenyl)prop-2-en-1-one] | – | > 40 µM | 58.5 ± 1.38% | 19 ± 0.55% | 5.92 | 21 ± 4.02% | 12.90 | 3.1 ± 0.04 µM | 88.19 ± 6.87% | – | –
3 | CN1CCN(c2ccc(C(=O)/C=C/c3ccc(F)cc3)cc2)CC1 [Compound 2c, (E)-3-(4-fluorophenyl)-1-(4-(4-methylpiperazin-1-yl)phenyl)prop-2-en-1-one] | 103 ± 8.84% | > 40 µM | 49.7 ± 3.7% | 49.4 ± 4.66% | 1.79 | 22.7 ± 1.61% | 13.42 | 2.98 ± 0.18 µM | – | – | –
4 | CN1CCN(c2ccc(C(=O)/C=C/c3ccc(C#N)cc3)cc2)CC1 [Compound 2d, (E)-4-(3-(4-(4-methylpiperazin-1-yl)phenyl)-3-oxoprop-1-en-1-yl)benzonitrile] | 72.3 ± 2.5% | > 40 µM | 71.5 ± 5.25% | 24.3 ± 0.95% | 10.38 | 16.7 ± 4.71% | 18.18 | 2.2 ± 0.06 µM | – | – | –
5 | CC(C)c1ccc(/C=C/C(=O)c2ccc(N3CCN(C)CC3)cc2)cc1 [Compound 2e, (E)-3-(4-isopropylphenyl)-1-(4-(4-methylpiperazin-1-yl)phenyl)prop-2-en-1-one] | 60.6 ± 3.98% | 16.2 ± 1.74 µM | 49.3 ± 1.28% | – | 3.83 | 44.1 ± 3.04% | 1.94 | 8.36 ± 0.39 µM | – | 17.75 ± 1.85% | –
6 | CN1CCN(c2ccc(C(=O)/C=C/c3ccc(N(C)C)cc3)cc2)CC1 [Compound 2f, (E)-3-(4-(dimethylamino)phenyl)-1-(4-(4-methylpiperazin-1-yl)phenyl)prop-2-en-1-one] | 83.6 ± 4.22% | > 40 µM | 76.5 ± 3.35% | – | >13.20 | 21.3 ± 3.77% | 12.16 | 3.29 ± 0.08 µM | – | 26.37 ± 1.85% | –
7 | CSc1ccc(/C=C/C(=O)c2ccc(N3CCN(C)CC3)cc2)cc1 [Compound 2g, (E)-1-(4-(4-methylpiperazin-1-yl)phenyl)-3-(4-(methylthio)phenyl)prop-2-en-1-one] | 97.2 ± 1.99% | > 40 µM | 74.7 ± 4.48% | 50.4 ± 4.43% | >3.22 | 40 ± 1.67% | 5.93 | 6.74 ± 0.03 µM | – | – | –
8 | CN1CCN(c2ccc(C(=O)/C=C/c3ccc(OC(F)F)cc3)cc2)CC1 [Compound 2h, (E)-3-(4-(difluoromethoxy)phenyl)-1-(4-(4-methylpiperazin-1-yl)phenyl)prop-2-en-1-one] | 55.2 ± 4.12% | > 40 µM | 73.9 ± 3.35% | 38 ± 0.92% | >6.87 | 17.3 ± 3.77% | 6.51 | 6.14 ± 0.43 µM | – | – | –
9 | CN1CCN(c2ccc(C(=O)/C=C/c3cc(F)cc(C(F)(F)F)c3)cc2)CC1 [Compound 2i, (E)-3-(3-fluoro-5-(trifluoromethyl)phenyl)-1-(4-(4-methylpiperazin-1-yl)phenyl)prop-2-en-1-one] | 114 ± 6.06% | > 40 µM | 63.7 ± 6.24% | 51.5 ± 4.92% | 1.82 | 20.4 ± 2.47% | 17.17 | 2.33 ± 0.14 µM | – | – | –
10 | CN1CCN(c2ccc(C(=O)/C=C/c3cc(C(F)(F)F)cc(C(F)(F)F)c3)cc2)CC1 [Compound 2j, (E/Z)-3-(3,5-bis(trifluoromethyl)phenyl)-1-(4-(4-methylpiperazin-1-yl)phenyl)prop-2-en-1-one] | 97.1 ± 4.04% | > 40 µM | 86 ± 1.04% | 57.1 ± 5.39% | >2.60 | 67.8 ± 5.36% | 2.55 | 15.7 ± 1.17 µM | – | – | –
11 | CN1CCN(c2ccc(C(=O)/C=C/c3ccc(Cl)c(C(F)(F)F)c3)cc2)CC1 [Compound 2l, (E)-3-(4-chloro-3-(trifluoromethyl)phenyl)-1-(4-(4-methylpiperazin-1-yl)phenyl)prop-2-en-1-one] | 85.9 ± 1.66% | > 40 µM | 73 ± 1.75% | 68.5 ± 1.32% | 1.85 | – | 28.37 | 1.41 ± 0.04 µM | – | – | 0.00 ± 1.79%
12 | COc1cc(/C=C/C(=O)c2ccc(N3CCN(C)CC3)cc2)ccc1F [Compound 2m, (E)-3-(4-fluoro-3-methoxyphenyl)-1-(4-(4-methylpiperazin-1-yl)phenyl)prop-2-en-1-one] | 78.8 ± 1.66% | > 40 µM | 66.8 ± 2.1% | 27.6 ± 1.9% | 4.18 | 39.9 ± 6.26% | 5.92 | 6.76 ± 0.82 µM | – | – | –
13 | CN1CCN(c2ccc(C(=O)/C=C/c3cc(C(F)(F)F)ccc3Cl)cc2)CC1 [Compound 2o, (E)-3-(2-chloro-5-(trifluoromethyl)phenyl)-1-(4-(4-methylpiperazin-1-yl)phenyl)prop-2-en-1-one] | 92.5 ± 4.23% | > 40 µM | 6.46 ± 3.05% | 37.6% | 0.31 | 22.9 ± 2.26% | 12.50 | 3.2 ± 0.32 µM | – | – | –
14 | COc1ccc(/C=C/C(=O)c2ccc(N3CCN(C)CC3)cc2)c(C(F)(F)F)c1 [Compound 2p, (E)-3-(4-methoxy-2-(trifluoromethyl)phenyl)-1-(4-(4-methylpiperazin-1-yl)phenyl)prop-2-en-1-one] | 44.5 ± 3.31% | 6.67 ± 0.63 µM | 28.9 ± 4.08% | 37.8 ± 7.64% | 1.06 | 15 ± 3.93% | 3.06 | 2.18 ± 0.01 µM | – | – | –
15 | CN1CCN(c2ccc(C(=O)/C=C/c3ccc(F)cc3F)cc2)CC1 [Compound 2q, (E)-3-(2,4-difluorophenyl)-1-(4-(4-methylpiperazin-1-yl)phenyl)prop-2-en-1-one] | 72.7 ± 3.31% | 16.5 ± 1.75 µM | 55.3 ± 0.68% | 33.78 ± 0.27% | 1.71 | 13.1 ± 2.06% | 5.45 | 3.03 ± 0.13 µM | – | – | –
